Experimental data published in PMC9351465, “Mechanism-based heparanase inhibitors reduce cancer metastasis in vivo” (Proceedings of the National Academy of Sciences of the …, 2022).

Target: T1, HPSE (Homo sapiens, UniProt Q9Y251)
T1 sequence (Q9Y251 158-543 limits assumed): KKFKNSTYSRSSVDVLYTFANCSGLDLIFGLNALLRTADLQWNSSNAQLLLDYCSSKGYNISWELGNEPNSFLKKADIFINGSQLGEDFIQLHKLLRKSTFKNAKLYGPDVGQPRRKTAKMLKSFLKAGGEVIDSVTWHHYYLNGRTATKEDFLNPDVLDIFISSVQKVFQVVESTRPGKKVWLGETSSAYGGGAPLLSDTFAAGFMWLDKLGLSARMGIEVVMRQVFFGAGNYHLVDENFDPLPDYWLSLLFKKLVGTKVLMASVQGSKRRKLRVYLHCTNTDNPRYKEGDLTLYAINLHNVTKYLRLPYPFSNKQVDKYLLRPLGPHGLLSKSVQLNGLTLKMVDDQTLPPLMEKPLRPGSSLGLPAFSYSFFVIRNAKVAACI
T1 sequence (Q9Y251 36-109 limits assumed): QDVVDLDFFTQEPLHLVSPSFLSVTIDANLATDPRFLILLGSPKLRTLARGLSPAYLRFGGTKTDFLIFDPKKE
Experiment: H35SPG basement membrane (ECM) digest by recombinant HPSE
Format: biochemical
Excerpt: Finally, we assessed our inhibitors against HPSE-mediated degradation of bona fide HSPGs in an ECM environment. Cultured bovine corneal endothelial cells secrete a subendothelial basement membrane material rich in proteoglycans, which can be radiolabeled by growth in the presence of ^35SO4^2− ([50]). Solubilized H^35S chains released from H^35SPGs by HPSE digestion can be resolved chromatographically, with HPSE inhibition leading to a corresponding loss of signal. […] We also tested inhibition of endogenous cellular HPSE using this assay format. […]
ECM coated 35 mm culture dishes containing 35S labelled HS were prepared as previously described (10). Briefly, bovine corneal endothelial cells were plated at an initial density of 2x10^5 cells/ml, with 4% dextran T-40 (Sigma) included in the growth medium. Na235SO4 (25 µCi/ml) was added to the incubation medium on days 2 and 5 after seeding. On day 12, subendothelial ECM is exposed by dissolving the cells with PBS containing 0.5% Triton X-100 and 20 mM NH4OH, followed by four washes with PBS.
For HS-degradation assays, ECM coated dishes were incubated with 200 ng recombinant HPSE in 1 mL reaction mixture (10 mM buffer Phosphate-Citrate pH 6.0, 50 mM NaCl, 1 mM DTT, 1 mM CaCl2) containing HPSE inhibitors or DMSO control. Plates were incubated at 37°C for 5 h, then assay medium collected and applied to a 0.9×30 cm Sepharose 6B size exclusion column. The Sepharose 6B column was eluted with PBS, and 35S radioactivity of 0.2 mL fractions quantitated using a liquid scintillation analyzer (Packard BioScience) (11). […]
Matrigel and […]
non-migrating cells in the upper side of the Boyden filter were removed by swabbing, then invading cells on the bottom side of the transwell filter imaged for analysis. […]
B16 melanoma - Twenty minutes before tumor cell inoculation, C57BL/J6 mice (n=5) were injected intraperitoneally with vehicle alone (PBS), compound 2 (300 nmol/mouse), or SST0001 (150 µg/mouse). Mice were subsequently intravenously inoculated with 1.5x105

inhibition of recombinant HPSE-mediated H35SPG cleavage (200 ng HPSE, pH 6.0, 37°C, 5 h): robust, dose-dependent inhibition | level of inhibition of H35SPG cleavage relative to 4.6 μM 10 (1 μM 2 or 3 compared to 4.6 μM 10): comparable levels of inhibition
Compound: CC(=O)N[C@H]1[C@@H](O[C@H]2[C@H](O)[C@@H](O)[C@@H]3O[C@@H]3[C@@H]2C(=O)O)O[C@H](CO)[C@@H](O)[C@@H]1O [compound 2]
